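Grown in 96-well plates, cells were treated for 48 hours with each compound at five concentrations. Insufficient inhibition: endpoint recorded as highest concentration tested. The concentration for 50% growth inhibition is given as GI50. TGI denotes the concentration required for complete inhibition of growth.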
Legend:
Experiment in all cases: DTP human tumour cell line panel, 48 h; in the data active means GI50 below about 0.43 µM; inactive means the rest
[1] = tested on: COLO 205 colon
[2] = tested on: NCI-H226 lung
[3] = tested on: SNB-75 CNS
[4] = tested on: OVCAR-5 ovarian
[5] = tested on: SK-MEL-5 melanoma
[6] = tested on: CCRF-CEM leukemia
[7] = tested on: OVCAR-3 ovarian
[8] = tested on: SN12C renal
[9] = tested on: SNB-19 CNS
[10] = tested on: KM20L2 colon
[11] = tested on: NCI-H522 lung
[12] = tested on: LOX IMVI melanoma
[13] = tested on: SNB-78 CNS
[14] = tested on: UO-31 renal
[15] = tested on: IGROV1 ovarian
[16] = tested on: U251 CNS
[17] = tested on: SF-539 CNS
[18] = tested on: KM12 colon
[19] = tested on: HOP-92 NSCLC
[20] = tested on: HT29 colon
[21] = tested on: OVCAR-4 ovarian
[22] = tested on: HCT-15 colon
[23] = tested on: LXFL 529 NSCLC
[24] = tested on: HL-60(TB) leukemia
[25] = tested on: DLD-1 colon
[26] = tested on: UACC-62 melanoma
[27] = tested on: RXF 393 renal
[28] = tested on: OVCAR-8 ovarian
[29] = tested on: SR leukemia
[30] = tested on: MOLT-4 leukemia
[31] = tested on: SK-OV-3 ovarian
[32] = tested on: RPMI-8226 leukemia
[33] = tested on: NCI-H460 lung
[34] = tested on: A498 renal
[35] = tested on: A549 NSCLC
[36] = tested on: M14 melanoma
[37] = tested on: HOP-18 NSCLC
[38] = tested on: HCT-116 colon
[39] = tested on: MALME-3M melanoma
[40] = tested on: EKVX NSCLC
[41] = tested on: NCI-H23 lung
[42] = tested on: 786-0 renal
[43] = tested on: M19-MEL melanoma
[44] = tested on: SF-295 CNS
[45] = tested on: SK-MEL-28 melanoma
[46] = tested on: DMS 114 small cell lung
[47] = tested on: ACHN renal
[48] = tested on: XF 498 CNS
[49] = tested on: CAKI-1 renal
[50] = tested on: HCC-2998 colon
[51] = tested on: DMS 273 small cell lung
[52] = tested on: TK-10 renal
[53] = tested on: K-562 leukemia
[54] = tested on: UACC-257 melanoma
[55] = tested on: SW-620 colon
[56] = tested on: HOP-62 NSCLC
[57] = tested on: SK-MEL-2 melanoma
[58] = tested on: SF-268 CNS

C=Cc1cncc(C#N)c1CCc1c(C#N)cncc1C=C
> 10 µM: TGI [1] | TGI [19] | TGI [21] | TGI [29] | TGI [31] | TGI [37] | TGI [45] | TGI [46] | TGI [58]
> 100 µM: TGI [2] | TGI [3] | TGI [4] | TGI [5] | TGI [6] | TGI [7] | TGI [8] | TGI [9] | TGI [10] | TGI [11] | TGI [12] | TGI [13] | TGI [14] | TGI [15] | TGI [16] | TGI [17] | TGI [18] | TGI [20] | TGI [22] | TGI [23] | TGI [24] | TGI [25] | TGI [26] | TGI [27] | TGI [28] | TGI [30] | TGI [32] | TGI [33] | TGI [34] | TGI [35] | TGI [36] | TGI [38] | TGI [39] | TGI [40] | TGI [41] | TGI [42] | TGI [43] | TGI [44] | TGI [47] | TGI [48] | TGI [49] | TGI [50] | TGI [51] | TGI [52] | TGI [53] | TGI [54] | TGI [55] | TGI [56] | TGI [57]
inactive: GI50 [2] > 100 µM | GI50 [3] > 100 µM | GI50 [4] > 100 µM | GI50 [5] > 100 µM | GI50 [6] > 100 µM | GI50 [7] > 100 µM | GI50 [8] > 100 µM | GI50 [9] > 100 µM | GI50 [10] > 100 µM | GI50 [11] > 100 µM | GI50 [13] > 100 µM | GI50 [14] > 100 µM | GI50 [15] > 100 µM | GI50 [16] > 100 µM | GI50 [17] > 100 µM | GI50 [18] > 100 µM | GI50 [20] > 100 µM | GI50 [22] > 100 µM | GI50 [23] > 100 µM | GI50 [24] > 100 µM | GI50 [25] > 100 µM | GI50 [26] > 100 µM | GI50 [27] > 10 µM | GI50 [28] > 100 µM | GI50 [30] > 100 µM | GI50 [32] > 100 µM | GI50 [33] > 100 µM | GI50 [34] > 100 µM | GI50 [35] > 100 µM | GI50 [36] > 100 µM | GI50 [38] > 100 µM | GI50 [39] > 100 µM | GI50 [40] > 10 µM | GI50 [41] > 100 µM | GI50 [42] > 100 µM | GI50 [43] > 100 µM | GI50 [44] > 100 µM | GI50 [47] > 100 µM | GI50 [48] > 100 µM | GI50 [49] > 10 µM | GI50 [50] > 100 µM | GI50 [51] > 100 µM | GI50 [52] > 100 µM | GI50 [53] > 100 µM | GI50 [54] > 100 µM | GI50 [55] > 100 µM | GI50 [56] > 100 µM | GI50 [57] > 100 µM

CN(C(=O)C12C3C4C1C1C2C3C41C(N)=O)C(C)(C)C (stereo unspecified)
> 100 µM: TGI [1] | TGI [2] | TGI [3] | TGI [4] | TGI [5] | TGI [6] | TGI [7] | TGI [8] | TGI [9] | TGI [11] | TGI [13] | TGI [14] | TGI [15] | TGI [17] | TGI [18] | TGI [19] | TGI [20] | TGI [21] | TGI [23] | TGI [24] | TGI [26] | TGI [28] | TGI [29] | TGI [30] | TGI [31] | TGI [33] | TGI [34] | TGI [35] | TGI [36] | TGI [38] | TGI [39] | TGI [40] | TGI [41] | TGI [42] | TGI [43] | TGI [44] | TGI [45] | TGI [46] | TGI [47] | TGI [48] | TGI [49] | TGI [50] | TGI [51] | TGI [52] | TGI [53] | TGI [55] | TGI [58]

NC(=O)CN(CC(N)=O)C(N)=O
> 100 µM: TGI [1] | TGI [2] | TGI [3] | TGI [4] | TGI [5] | TGI [6] | TGI [7] | TGI [9] | TGI [10] | TGI [11] | TGI [12] | TGI [13] | TGI [14] | TGI [15] | TGI [16] | TGI [17] | TGI [18] | TGI [19] | TGI [20] | TGI [21] | TGI [22] | TGI [23] | TGI [24] | TGI [26] | TGI [27] | TGI [28] | TGI [30] | TGI [31] | TGI [32] | TGI [33] | TGI [34] | TGI [35] | TGI [36] | TGI [37] | TGI [38] | TGI [39] | TGI [40] | TGI [41] | TGI [42] | TGI [43] | TGI [44] | TGI [45] | TGI [46] | TGI [47] | TGI [48] | TGI [49] | TGI [51] | TGI [52] | TGI [53] | TGI [54] | TGI [55] | TGI [57] | TGI [58]

Source: PubChem BioAssay (NCI)
